Data on one compound can be found in US9040713B2, “Methods of managing blood sugar levels and compositions related thereto” (EMORY UNIVERSITY, priority 2010, dated 2015).

One series has as its system IGF-1R. As to the kind of experiment: IGF-1R phosphorylation in cells (immunoblotting). In kind it is cell-based. Conditions: CHO-IGF-1R cells, 10 μM, 15 min. Here is the method: (§1) (A) DDN and CSN activate IR and its downstream signaling in CHO-IR cells. […] The cell lysates were analyzed by immunoblotting with anti-phospho-IR antibodies, or immunoprecipitated by PY20 and analyzed using anti-IR and anti-IRS-1, respectively. (B) DDN and CSN induce IR phosphorylation in a dose-dependent manner. CHO-IR cells were treated with the small compounds at different concentrations for 15 min, and the IR phosphorylation was monitored by immunoprecipitation and immunoblotting. (C) DDN, CSN induce IR phosphorylation in a time-dependent manner. […] (D) DDN and CSN induce IR phosphorylation and its downstream signaling in a dose-dependent manner. […] (E) DDN and CSN cannot induce IGF-1R or EGFR phosphorylation. CHO-IGF-1R or HEK293 cells were treated with EGF (100 nM), IGF-1 (100 nM), DDN (10 μM) or CSN (10 μM) for 15 min. The cell lysates were analyzed by immunoblotting with anti-pIGF-1R and anti-pEGFR.
(§2) (A) Chemical structure of 4524-E7. (B) Effect of 4524-E7 and other 1,4-naphthoquinone derivatives on IR phosphorylation in CHO-IR cells. CHO-IR cells were cultured in 96-well plates and treated with 5 μM compounds for 15 min at 37 C. Cells were lysed, and IR phosphorylations were tested by ELISA. The IR phosphorylation activities of the tested compounds were expressed as a percentage of the vehicle. (C) 4524-E7 and 1,4-naphthoquinone derivates activate IR and its downstream signaling in CHO-IR cells. […] The cell lysates were analyzed by immunoblotting with various indicated antibodies. The phosphorylated IR was immunoprecipitated using PY20 and analyzed by immunoblotting with anti-IR13 antibody. […] The phosphorylation of each receptor was determined by Western blot using specific antibodies as indicated. (E) 4524-E7 activates IR through its ICD. Upper panel: Diagram of chimaeric receptors. Lower panel: His-tagged wild-type IR, IGFR-IR, IR-IGFR, and IR-EGFR constructs were transfected into CHO cells followed vehicle or 5 μM 4524-E7 treatment for 30 min. Then the cells were lysated and the transfected receptor fused to His tag were pulled down with Ni+ beads, followed by western blot against anti-p-Tyr and anti-His. The cell lysates were tested with anti-p-Akt and anti-Akt.
(§3) A cell-based ELISA assay was developed with an IR stably transfected Chinese Hamster Ovary (CHO-IR) cell line. The cells were seeded in a 96-well plate and treated with 10 μM (15 min) compounds. The cell lysates were subjected to the sandwich ELISA using immobilized anti-phosphotyrosine antibody and anti-IR antibody. […] Among the positive hits, 1,4-naphthoquinone compounds were identified that can selectively activate IR but not IGF-1R (FIG. 1A). […] Total IR tyrosine phosphorylation was further confirmed by immunoprecipitation using anti-phosphotyrosine (PY20) antibody (FIG. 2A, 3rd panel). […]

For a further series, the system named is EGFR. As to the kind of experiment: EGFR phosphorylation in cells (immunoblotting). Type of series: cell-based. Conditions: HEK293 cells, 10 μM, 15 min. Here is the method:
as §1, §2, §3
(In western blotting, separated proteins are transferred to a membrane and probed.)

The target of the next series is IR (Homo sapiens, UniProt P06213). As to the kind of experiment: Immunoblotting of IR phosphorylation and downstream signaling in CHO-IR cells. Type of series: cell-based. On the set-up: expressed in transfected cells; host or cells: CHO (CHO-IR, gift from Dr. Nicholas Webster, UCSD). Here is the method:
The cell lysates were analyzed by immunoblotting with anti-phospho-IR antibodies, or immunoprecipitated by PY20 and analyzed using anti-IR and anti-IRS-1, respectively. […] The cell lysates were analyzed by immunoblotting with anti-pIGF-1R and anti-pEGFR. […]
A cell-based ELISA assay was developed with an IR stably transfected Chinese Hamster Ovary (CHO-IR) cell line. […] The cell lysates were subjected to the sandwich ELISA using immobilized anti-phosphotyrosine antibody and anti-IR antibody.

A further series has as its system C57BL/6J mice. As to the kind of experiment: Lethality after administration to C57BL/6J mice. Type of series: in vivo, mouse. The conditions noted are these: intraperitoneal, even at low doses (1 mg/kg). As to the method:
However, CSN was lethal to the mice even at low doses (1 mg/kg) (data not shown). […] The kinetics of DDN in lowering blood glucose is different from that of insulin.

Molecules are shown by their SMILES.

Chain of IR (P06213 763-1382 limits assumed): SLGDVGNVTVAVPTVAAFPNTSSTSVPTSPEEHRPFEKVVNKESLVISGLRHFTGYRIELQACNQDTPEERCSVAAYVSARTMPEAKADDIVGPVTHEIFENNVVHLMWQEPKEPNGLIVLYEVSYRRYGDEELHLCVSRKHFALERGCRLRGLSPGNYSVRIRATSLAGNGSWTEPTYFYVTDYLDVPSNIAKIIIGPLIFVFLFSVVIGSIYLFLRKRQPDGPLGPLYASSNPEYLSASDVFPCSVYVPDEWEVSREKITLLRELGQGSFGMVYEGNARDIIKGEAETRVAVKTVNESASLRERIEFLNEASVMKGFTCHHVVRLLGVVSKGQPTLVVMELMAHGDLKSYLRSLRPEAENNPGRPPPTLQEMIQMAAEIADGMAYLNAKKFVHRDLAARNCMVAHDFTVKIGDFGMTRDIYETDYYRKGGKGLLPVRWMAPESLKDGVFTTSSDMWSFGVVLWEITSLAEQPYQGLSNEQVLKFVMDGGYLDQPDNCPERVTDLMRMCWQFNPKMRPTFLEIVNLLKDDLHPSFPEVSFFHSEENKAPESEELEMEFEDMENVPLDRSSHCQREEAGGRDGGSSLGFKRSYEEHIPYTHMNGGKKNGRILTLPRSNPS
Chain of IR (P06213 28-758 limits assumed): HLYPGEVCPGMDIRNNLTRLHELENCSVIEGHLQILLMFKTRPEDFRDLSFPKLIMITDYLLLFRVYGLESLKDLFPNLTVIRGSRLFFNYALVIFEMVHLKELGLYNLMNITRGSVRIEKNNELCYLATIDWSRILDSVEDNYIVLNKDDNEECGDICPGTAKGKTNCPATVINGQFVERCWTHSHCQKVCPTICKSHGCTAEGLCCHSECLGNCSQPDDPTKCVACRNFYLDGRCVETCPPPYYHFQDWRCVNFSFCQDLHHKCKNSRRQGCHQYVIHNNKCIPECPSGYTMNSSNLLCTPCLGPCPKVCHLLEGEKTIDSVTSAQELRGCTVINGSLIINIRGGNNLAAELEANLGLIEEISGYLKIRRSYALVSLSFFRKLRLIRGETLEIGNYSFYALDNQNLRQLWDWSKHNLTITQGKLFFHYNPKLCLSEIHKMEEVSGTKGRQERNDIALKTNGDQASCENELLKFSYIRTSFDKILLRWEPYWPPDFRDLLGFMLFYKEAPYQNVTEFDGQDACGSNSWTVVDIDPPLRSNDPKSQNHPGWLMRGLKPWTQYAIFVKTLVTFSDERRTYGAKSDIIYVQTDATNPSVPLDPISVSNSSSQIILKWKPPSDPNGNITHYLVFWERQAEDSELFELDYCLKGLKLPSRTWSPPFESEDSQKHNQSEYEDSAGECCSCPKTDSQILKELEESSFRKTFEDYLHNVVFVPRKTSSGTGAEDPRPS

With `CSC1=C(SC)C(=O)c2ccccc2C1=O` [CSN, 2,3-Bis-methylsulfanyl-1,4-naphthoquinone], the IGF-1R activation entry in the series with IGF-1R is “Neither IGF-1R nor EGFR was activated”. Further, in the series on EGFR, the EGFR activation result is “Neither IGF-1R nor EGFR was activated”. For the same compound, at IR (5 μM), the “time at which IR activation peaked” value came to 60 min and the “time at which IR phosphorylation starts” value fell in the range of 5 to 15 min. Also, on IR (5 μM, 15 min), the “tyrosine phosphorylation of IRS-1” value was “also increased”; the “tyrosine phosphorylation of the IR β subunit in Y1146 and Y1158/1162/1163” value was “strongly stimulated”. Also, the “concentration stimulating the IR signal cascades” value on IR (DDN or CSN 30 min, insulin 15 min) stood at 5 µM. The lethality result with C57BL/6J mice is “lethal to the animals”.
